# Measured values: publication PMC10416764, “Crystal structure of Prp16 in complex with ADP” (Acta Crystallographica. Section F, Structural Biology …, 2023)
# Target: T1, ctPrp16 (302-920) (Thermochaetoides thermophila, UniProt G0S0F9)
# T1 construct: gene CTHT_0009880; residues 302-920 (RecA1, RecA2, WH, HB, OB-fold); N- and C-terminally truncated; codon-optimized gene, E. coli Rosetta2 (DE3), pGEX-6P-3, GST tag cleaved by PreScission; one molecule per asymmetric unit
# T1 sequence (G0S0F9 301-920 limits assumed): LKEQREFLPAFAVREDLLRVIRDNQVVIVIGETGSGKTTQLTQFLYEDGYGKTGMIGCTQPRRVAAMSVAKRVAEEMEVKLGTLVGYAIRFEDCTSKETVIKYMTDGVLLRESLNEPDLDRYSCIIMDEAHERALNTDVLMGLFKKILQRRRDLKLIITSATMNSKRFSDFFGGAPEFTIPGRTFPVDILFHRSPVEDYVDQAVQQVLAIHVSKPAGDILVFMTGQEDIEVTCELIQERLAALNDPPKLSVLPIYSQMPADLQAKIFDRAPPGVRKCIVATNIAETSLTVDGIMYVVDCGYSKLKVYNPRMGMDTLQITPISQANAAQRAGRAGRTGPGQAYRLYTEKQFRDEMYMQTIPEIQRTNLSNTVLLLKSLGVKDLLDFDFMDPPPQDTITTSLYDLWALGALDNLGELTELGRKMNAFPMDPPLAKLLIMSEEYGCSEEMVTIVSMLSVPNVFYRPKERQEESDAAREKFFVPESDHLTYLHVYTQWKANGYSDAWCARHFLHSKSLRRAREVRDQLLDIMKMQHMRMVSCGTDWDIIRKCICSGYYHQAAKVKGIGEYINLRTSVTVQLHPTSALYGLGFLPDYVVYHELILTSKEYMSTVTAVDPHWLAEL
# Assay: X-ray crystallography, […] A, co-crystallization
# Format: binding
# Details: Mg2+ bound; MES pH 6.5; 293 K; tenfold molar excess of ADP; nucleotide site between RecA1 and RecA2
smiles,measurement,value
Nc1ncnc2c1ncn2[C@@H]1O[C@H](COP(=O)(O)OP(=O)(O)O)[C@@H](O)[C@H]1O [ADP],"X-ray crystallography, 1.9 A, co-crystallization",The polder omit map clearly reveals the presence of ADP and a magnesium ion
